Test results reported in ChEMBL document CHEMBL5678818, “Discovery of potent SOS1 inhibitors that block RAS activation via disruption of the RAS-SOS1 interaction” (Proc Natl Acad Sci U S A, 2019).

Experiments:
[1] = test system: Receptor-type tyrosine-protein kinase FLT3 (Homo sapiens), P36888 [R834Q]; assay: Inhibition of FLT3 R834Q mutant (unknown origin) assessed as residual activity at 100 nM by KINOMEscan analysis relative to control
[2] = molecular target: Platelet-derived growth factor receptor alpha (Homo sapiens) (UniProt P16234); assay: Inhibition of PDGFRA (unknown origin) assessed as residual activity at 100 nM by KINOMEscan analysis relative to control
[3] = molecular target: Tyrosine-protein kinase receptor Tie-1 (Homo sapiens) (UniProt P35590); assay: Inhibition of TIE1 (unknown origin) assessed as residual activity at 100 nM by KINOMEscan analysis relative to control
Sequence of Tyrosine-protein kinase receptor Tie-1 (Homo sapiens) (P35590 whole entry): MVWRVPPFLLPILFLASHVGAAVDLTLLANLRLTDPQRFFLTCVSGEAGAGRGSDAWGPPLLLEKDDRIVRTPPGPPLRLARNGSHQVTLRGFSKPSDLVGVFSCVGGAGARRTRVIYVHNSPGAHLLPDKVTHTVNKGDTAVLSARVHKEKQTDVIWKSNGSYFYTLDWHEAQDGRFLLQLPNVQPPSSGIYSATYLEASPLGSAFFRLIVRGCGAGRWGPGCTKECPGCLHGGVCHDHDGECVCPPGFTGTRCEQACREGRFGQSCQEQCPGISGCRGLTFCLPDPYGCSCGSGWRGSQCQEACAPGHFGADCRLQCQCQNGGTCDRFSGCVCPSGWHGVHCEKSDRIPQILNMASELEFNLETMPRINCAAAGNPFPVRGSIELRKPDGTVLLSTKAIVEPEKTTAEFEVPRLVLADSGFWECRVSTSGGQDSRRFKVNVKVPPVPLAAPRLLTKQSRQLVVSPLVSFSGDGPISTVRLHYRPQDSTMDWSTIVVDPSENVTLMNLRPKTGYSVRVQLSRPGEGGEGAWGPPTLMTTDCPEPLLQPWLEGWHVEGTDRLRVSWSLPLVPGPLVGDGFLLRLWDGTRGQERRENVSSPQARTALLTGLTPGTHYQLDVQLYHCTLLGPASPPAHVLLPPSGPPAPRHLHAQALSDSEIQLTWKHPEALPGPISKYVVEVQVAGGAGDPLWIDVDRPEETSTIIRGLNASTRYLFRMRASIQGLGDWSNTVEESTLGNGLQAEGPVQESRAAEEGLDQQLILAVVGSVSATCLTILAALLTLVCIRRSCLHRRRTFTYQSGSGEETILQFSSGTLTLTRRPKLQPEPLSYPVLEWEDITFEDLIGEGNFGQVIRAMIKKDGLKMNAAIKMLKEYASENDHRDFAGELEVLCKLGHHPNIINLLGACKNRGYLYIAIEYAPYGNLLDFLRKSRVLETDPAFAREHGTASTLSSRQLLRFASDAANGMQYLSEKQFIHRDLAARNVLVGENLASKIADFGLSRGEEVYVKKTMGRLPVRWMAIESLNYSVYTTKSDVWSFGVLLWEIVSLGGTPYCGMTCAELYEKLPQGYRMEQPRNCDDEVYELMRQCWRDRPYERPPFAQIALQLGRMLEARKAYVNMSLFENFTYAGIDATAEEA

[4] = molecular target: T1, Tyrosine-protein kinase ITK/TSK (Homo sapiens) (UniProt Q08881); assay: Inhibition of ITK (unknown origin) assessed as residual activity at 100 nM by KINOMEscan analysis relative to control
T1 sequence (whole entry): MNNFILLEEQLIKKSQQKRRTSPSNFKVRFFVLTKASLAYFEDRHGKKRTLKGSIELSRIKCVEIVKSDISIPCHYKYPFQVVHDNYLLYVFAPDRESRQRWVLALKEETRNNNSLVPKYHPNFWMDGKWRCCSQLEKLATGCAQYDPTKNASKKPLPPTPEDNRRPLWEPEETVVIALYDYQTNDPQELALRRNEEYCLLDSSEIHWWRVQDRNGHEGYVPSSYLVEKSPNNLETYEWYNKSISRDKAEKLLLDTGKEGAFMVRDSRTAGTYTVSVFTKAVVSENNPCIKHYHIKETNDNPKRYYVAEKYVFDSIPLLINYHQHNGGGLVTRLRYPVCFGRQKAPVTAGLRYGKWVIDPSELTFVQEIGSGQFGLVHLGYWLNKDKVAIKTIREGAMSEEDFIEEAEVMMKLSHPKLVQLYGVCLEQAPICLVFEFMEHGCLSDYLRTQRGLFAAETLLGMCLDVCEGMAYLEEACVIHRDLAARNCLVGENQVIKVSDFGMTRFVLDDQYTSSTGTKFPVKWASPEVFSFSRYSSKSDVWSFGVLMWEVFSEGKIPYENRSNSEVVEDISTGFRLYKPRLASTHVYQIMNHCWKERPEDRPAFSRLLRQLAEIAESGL

[5] = molecular target: T2, Inhibitor of nuclear factor kappa-B kinase subunit epsilon (Homo sapiens) (UniProt Q14164); assay: Inhibition of IKK-epsilon (unknown origin) assessed as residual activity at 100 nM by KINOMEscan analysis relative to control
T2 sequence (whole entry): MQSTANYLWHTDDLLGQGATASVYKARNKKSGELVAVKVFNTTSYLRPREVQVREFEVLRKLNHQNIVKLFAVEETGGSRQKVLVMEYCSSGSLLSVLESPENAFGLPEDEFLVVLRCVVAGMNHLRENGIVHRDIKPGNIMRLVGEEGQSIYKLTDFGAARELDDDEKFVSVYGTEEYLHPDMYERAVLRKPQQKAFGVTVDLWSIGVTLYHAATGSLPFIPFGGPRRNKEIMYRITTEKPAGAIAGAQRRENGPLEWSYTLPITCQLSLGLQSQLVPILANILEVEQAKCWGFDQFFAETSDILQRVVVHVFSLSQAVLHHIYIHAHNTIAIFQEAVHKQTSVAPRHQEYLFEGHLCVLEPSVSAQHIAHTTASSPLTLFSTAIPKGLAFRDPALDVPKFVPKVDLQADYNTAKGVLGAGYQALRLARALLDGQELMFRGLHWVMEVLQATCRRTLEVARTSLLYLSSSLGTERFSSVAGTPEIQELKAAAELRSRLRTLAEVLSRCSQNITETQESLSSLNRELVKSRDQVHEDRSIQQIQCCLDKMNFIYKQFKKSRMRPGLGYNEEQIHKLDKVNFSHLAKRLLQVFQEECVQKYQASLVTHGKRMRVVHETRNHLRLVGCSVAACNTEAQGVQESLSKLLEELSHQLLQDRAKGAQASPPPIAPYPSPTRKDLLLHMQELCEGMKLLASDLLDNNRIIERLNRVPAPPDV

[6] = molecular target: Phosphatidylinositol 4,5-bisphosphate 3-kinase catalytic subunit beta isoform (Homo sapiens) (UniProt P42338); assay: Inhibition of PIK3CB (unknown origin) assessed as residual activity at 100 nM by KINOMEscan analysis relative to control
Sequence of Phosphatidylinositol 4,5-bisphosphate 3-kinase catalytic subunit beta isoform (Homo sapiens) (P42338 whole entry, looked up, canonical isoform): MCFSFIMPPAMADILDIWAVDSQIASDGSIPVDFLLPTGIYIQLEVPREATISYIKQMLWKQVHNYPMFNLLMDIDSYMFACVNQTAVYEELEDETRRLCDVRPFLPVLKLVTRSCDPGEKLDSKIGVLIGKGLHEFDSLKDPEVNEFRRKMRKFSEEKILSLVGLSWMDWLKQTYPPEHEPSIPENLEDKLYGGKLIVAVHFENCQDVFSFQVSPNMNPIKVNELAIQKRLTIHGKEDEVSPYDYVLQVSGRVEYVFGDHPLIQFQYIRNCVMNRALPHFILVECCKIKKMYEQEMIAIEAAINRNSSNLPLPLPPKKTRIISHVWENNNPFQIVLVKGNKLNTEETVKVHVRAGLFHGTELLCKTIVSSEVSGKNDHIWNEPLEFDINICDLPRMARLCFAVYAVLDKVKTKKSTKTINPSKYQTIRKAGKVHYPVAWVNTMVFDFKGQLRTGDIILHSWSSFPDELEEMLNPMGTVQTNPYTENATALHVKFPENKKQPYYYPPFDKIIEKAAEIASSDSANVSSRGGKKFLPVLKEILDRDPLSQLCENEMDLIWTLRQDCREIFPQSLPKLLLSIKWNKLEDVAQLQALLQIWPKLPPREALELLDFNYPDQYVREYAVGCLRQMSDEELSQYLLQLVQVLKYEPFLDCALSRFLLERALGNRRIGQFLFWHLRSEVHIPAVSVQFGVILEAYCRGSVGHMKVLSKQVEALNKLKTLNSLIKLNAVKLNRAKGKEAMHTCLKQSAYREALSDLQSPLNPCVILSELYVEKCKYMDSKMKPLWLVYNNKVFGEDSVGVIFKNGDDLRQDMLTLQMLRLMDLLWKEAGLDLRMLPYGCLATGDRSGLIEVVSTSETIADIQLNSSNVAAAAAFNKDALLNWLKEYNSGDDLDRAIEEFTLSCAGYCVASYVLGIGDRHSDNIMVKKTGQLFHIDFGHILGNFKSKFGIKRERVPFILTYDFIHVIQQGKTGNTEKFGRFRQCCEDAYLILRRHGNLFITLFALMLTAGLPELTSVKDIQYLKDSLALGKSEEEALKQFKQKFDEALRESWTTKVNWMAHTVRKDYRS

[7] = molecular target: Serine/threonine-protein kinase 32A (Homo sapiens) (UniProt Q8WU08); assay: Inhibition of YANK1 (unknown origin) assessed as residual activity at 100 nM by KINOMEscan analysis relative to control
Sequence of Serine/threonine-protein kinase 32A (Homo sapiens) (Q8WU08 whole entry): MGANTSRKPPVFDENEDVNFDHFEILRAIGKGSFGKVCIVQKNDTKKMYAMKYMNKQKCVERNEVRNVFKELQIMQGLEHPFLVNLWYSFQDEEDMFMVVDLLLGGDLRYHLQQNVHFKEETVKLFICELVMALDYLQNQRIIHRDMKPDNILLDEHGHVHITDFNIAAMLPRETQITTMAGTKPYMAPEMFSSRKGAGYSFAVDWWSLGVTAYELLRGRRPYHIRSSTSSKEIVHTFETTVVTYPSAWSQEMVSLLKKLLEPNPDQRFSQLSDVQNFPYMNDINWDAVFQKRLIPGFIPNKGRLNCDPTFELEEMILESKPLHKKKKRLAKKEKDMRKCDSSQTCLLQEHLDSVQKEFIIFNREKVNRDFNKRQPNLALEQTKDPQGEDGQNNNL

[8] = molecular target: T3, Serine/threonine-protein kinase STK11 (Homo sapiens) (UniProt Q15831); assay: Inhibition of LKB1 (unknown origin) assessed as residual activity at 100 nM by KINOMEscan analysis relative to control
T3 sequence (whole entry): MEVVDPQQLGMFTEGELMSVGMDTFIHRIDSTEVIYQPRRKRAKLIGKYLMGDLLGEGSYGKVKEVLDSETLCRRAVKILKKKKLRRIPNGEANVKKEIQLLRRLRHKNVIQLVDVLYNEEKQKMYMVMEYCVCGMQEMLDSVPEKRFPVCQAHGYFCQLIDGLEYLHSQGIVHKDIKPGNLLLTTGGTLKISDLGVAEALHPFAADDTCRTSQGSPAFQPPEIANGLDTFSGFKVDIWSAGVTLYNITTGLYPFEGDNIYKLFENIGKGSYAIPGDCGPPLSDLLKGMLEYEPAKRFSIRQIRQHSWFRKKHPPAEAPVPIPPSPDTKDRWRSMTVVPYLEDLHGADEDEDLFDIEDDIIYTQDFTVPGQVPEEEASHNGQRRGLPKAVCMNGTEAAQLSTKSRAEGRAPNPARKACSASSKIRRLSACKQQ

[9] = molecular target: T4, Myosin light chain kinase family member 4 (Homo sapiens) (UniProt Q86YV6); assay: Inhibition of MYLK4 (unknown origin) assessed as residual activity at 100 nM by KINOMEscan analysis relative to control
T4 sequence (whole entry): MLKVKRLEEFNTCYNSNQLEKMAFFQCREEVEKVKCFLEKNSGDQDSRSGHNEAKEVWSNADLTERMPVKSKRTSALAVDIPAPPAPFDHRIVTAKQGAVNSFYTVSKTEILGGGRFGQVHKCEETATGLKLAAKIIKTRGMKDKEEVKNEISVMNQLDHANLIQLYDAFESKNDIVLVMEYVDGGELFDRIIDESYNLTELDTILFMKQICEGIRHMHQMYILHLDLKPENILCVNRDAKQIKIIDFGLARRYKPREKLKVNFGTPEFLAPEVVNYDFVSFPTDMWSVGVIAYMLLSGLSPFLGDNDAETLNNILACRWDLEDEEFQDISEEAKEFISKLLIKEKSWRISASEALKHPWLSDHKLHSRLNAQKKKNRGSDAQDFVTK

[10] = test system: Mast/stem cell growth factor receptor Kit (Homo sapiens), P10721 [V559D]; assay: Inhibition of KIT V559D mutant (unknown origin) assessed as residual activity at 100 nM by KINOMEscan analysis relative to control
Sequence of Mast/stem cell growth factor receptor Kit (Homo sapiens), P10721 [V559D] (P10721 whole entry V559D): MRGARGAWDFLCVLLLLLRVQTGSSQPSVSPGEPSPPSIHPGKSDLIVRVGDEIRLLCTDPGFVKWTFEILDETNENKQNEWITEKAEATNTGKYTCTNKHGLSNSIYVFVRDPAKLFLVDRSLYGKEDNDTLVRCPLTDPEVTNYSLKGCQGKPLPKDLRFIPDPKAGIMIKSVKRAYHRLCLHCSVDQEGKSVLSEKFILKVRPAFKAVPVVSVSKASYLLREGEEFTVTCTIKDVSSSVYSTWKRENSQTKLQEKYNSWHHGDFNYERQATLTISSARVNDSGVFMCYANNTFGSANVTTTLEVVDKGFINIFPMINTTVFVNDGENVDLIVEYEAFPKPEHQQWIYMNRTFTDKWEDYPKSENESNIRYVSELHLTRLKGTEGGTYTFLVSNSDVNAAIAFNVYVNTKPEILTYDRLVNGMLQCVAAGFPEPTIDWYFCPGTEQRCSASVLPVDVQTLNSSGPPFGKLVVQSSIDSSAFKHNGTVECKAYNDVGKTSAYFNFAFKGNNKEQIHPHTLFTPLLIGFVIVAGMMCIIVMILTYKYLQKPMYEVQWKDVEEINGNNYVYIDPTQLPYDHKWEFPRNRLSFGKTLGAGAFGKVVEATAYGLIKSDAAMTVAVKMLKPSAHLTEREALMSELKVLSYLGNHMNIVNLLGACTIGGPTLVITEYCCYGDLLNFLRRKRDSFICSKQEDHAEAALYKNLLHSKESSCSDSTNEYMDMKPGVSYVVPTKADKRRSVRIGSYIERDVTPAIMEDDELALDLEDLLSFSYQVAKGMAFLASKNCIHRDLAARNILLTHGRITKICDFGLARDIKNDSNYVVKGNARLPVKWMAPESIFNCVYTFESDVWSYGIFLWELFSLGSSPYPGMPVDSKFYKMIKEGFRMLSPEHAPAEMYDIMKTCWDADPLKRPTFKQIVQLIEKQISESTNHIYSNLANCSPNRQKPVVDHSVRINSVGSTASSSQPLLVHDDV

[11] = molecular target: Mitogen-activated protein kinase 6 (Homo sapiens) (UniProt Q16659); assay: Inhibition of ERK3 (unknown origin) assessed as residual activity at 100 nM by KINOMEscan analysis relative to control
Sequence of Mitogen-activated protein kinase 6 (Homo sapiens) (Q16659 whole entry): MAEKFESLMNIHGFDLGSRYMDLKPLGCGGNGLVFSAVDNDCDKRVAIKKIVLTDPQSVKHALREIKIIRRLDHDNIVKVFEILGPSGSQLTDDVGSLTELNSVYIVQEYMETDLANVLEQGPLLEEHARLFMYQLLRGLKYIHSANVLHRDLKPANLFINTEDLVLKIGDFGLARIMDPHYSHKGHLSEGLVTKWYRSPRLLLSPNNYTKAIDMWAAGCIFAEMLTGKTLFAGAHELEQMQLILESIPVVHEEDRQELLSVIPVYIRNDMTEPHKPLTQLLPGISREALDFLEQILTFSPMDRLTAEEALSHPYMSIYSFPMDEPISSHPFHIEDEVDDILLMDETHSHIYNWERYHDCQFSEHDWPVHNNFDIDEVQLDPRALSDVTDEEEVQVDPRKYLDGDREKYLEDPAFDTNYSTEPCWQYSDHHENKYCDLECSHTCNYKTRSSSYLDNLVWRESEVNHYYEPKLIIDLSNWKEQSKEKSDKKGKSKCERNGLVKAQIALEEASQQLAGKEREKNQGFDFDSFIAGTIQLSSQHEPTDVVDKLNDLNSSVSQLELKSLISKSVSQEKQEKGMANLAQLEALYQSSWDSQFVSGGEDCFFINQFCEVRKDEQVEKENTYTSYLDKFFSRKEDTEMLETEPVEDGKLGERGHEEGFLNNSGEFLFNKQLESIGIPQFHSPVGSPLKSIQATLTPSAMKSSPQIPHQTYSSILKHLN

COc1cc2ncnc(N[C@H](C)c3cccc4ccccc34)c2cc1OC
Activity [1]: 93% | Activity [2]: 100% | Activity [3]: 85% | Activity [4]: 73% | Activity [5]: 100% | Activity [6]: 72% | Activity [7]: 61% | Activity [8]: 100% | Activity [9]: 99% | Activity [10]: 100% | Activity [11]: 40%
